Laboratory results: publication PMC10817531, “Chlorinated Enyne Fatty Acid Amides from a Marine Cyanobacterium: Discovery of Taveuniamides L-M and Pharmacological Characterization of Taveuniamide F as a GPCR Antagonist with CNR1 Selectivity” (Marine Drugs, 2023)

How the values were obtained:
Assay in all cases: PathHunter β-arrestin GpcrMAX assay
Assay type in all cases: cell-based
[1] = molecular target: T1, FFAR1 (Homo sapiens, UniProt O14842)
T1 construct: purchased DiscoveRx (Eurofins) gpcrMAX PathHunter β-arrestin panel
How it was run: (§1)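 Both agonist and antagonist responses to 20 µM taveuniamide F were assessed by β-arrestin recruitment (PathHunter EFC).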

[2] = molecular target: T2, PROKR2 (Homo sapiens, UniProt Q8NFJ6)
T2 construct: purchased DiscoveRx (Eurofins) gpcrMAX PathHunter β-arrestin panel
How it was run: as §1

[3] = molecular target: T3, TBXA2R (Homo sapiens, UniProt P21731)
T3 construct: purchased DiscoveRx (Eurofins) gpcrMAX PathHunter β-arrestin panel
How it was run: as §1

[4] = molecular target: T4, EDG7 (Homo sapiens, UniProt Q9UBY5)
T4 construct: purchased DiscoveRx (Eurofins) gpcrMAX PathHunter β-arrestin panel
How it was run: as §1

[5] = molecular target: CALCR (Homo sapiens, UniProt P30988)
How it was run: as §1

[6] = molecular target: T5, EDNRB (Homo sapiens, UniProt P24530)
T5 construct: purchased DiscoveRx (Eurofins) gpcrMAX PathHunter β-arrestin panel
How it was run: as §1

[7] = molecular target: T6, MRGPRX1 (Homo sapiens, UniProt Q96LB2)
T6 construct: purchased DiscoveRx (Eurofins) gpcrMAX PathHunter β-arrestin panel
How it was run: as §1

[8] = molecular target: T7, TSHR(L) (Homo sapiens, UniProt P16473)
T7 construct: purchased DiscoveRx (Eurofins) gpcrMAX PathHunter β-arrestin panel
How it was run: as §1

[9] = molecular target: T8, P2RY6 (Homo sapiens, UniProt Q15077)
T8 construct: purchased DiscoveRx (Eurofins) gpcrMAX PathHunter β-arrestin panel
How it was run: as §1

[10] = molecular target: T9, ADCYAP1R1 (Homo sapiens, UniProt P41586)
T9 construct: purchased DiscoveRx (Eurofins) gpcrMAX PathHunter β-arrestin panel
How it was run: as §1

[11] = molecular target: T10, MLNR (Homo sapiens, UniProt O43193)
T10 construct: purchased DiscoveRx (Eurofins) gpcrMAX PathHunter β-arrestin panel
How it was run: as §1

[12] = molecular target: T11, EDG5 (Homo sapiens, UniProt O95136)
T11 construct: purchased DiscoveRx (Eurofins) gpcrMAX PathHunter β-arrestin panel
How it was run: as §1

[13] = molecular target: T12, CXCR3 (Homo sapiens, UniProt P49682)
T12 construct: purchased DiscoveRx (Eurofins) gpcrMAX PathHunter β-arrestin panel
How it was run: as §1

[14] = molecular target: T13, FPR1 (Homo sapiens, UniProt P21462)
T13 construct: purchased DiscoveRx (Eurofins) gpcrMAX PathHunter β-arrestin panel
How it was run: as §1

[15] = molecular target: T14, PTGIR (Homo sapiens, UniProt P43119)
T14 construct: purchased DiscoveRx (Eurofins) gpcrMAX PathHunter β-arrestin panel
How it was run: as §1

[16] = molecular target: T15, ADORA3 (Homo sapiens, UniProt P0DMS8)
T15 construct: purchased DiscoveRx (Eurofins) gpcrMAX PathHunter β-arrestin panel
How it was run: as §1

[17] = molecular target: T16, CX3CR1 (Homo sapiens, UniProt P49238)
T16 construct: purchased DiscoveRx (Eurofins) gpcrMAX PathHunter β-arrestin panel
How it was run: as §1

[18] = molecular target: T17, TACR1 (Homo sapiens, UniProt P25103)
T17 construct: purchased DiscoveRx (Eurofins) gpcrMAX PathHunter β-arrestin panel
How it was run: as §1

[19] = molecular target: T18, MC4R (Homo sapiens, UniProt P32245)
T18 construct: purchased DiscoveRx (Eurofins) gpcrMAX PathHunter β-arrestin panel
How it was run: as §1

[20] = molecular target: T19, PTGER2 (Homo sapiens, UniProt P43116)
T19 construct: purchased DiscoveRx (Eurofins) gpcrMAX PathHunter β-arrestin panel
How it was run: as §1

[21] = molecular target: T20, HRH1 (Homo sapiens, UniProt P35367)
T20 construct: purchased DiscoveRx (Eurofins) gpcrMAX PathHunter β-arrestin panel
How it was run: as §1

[22] = molecular target: T21, CXCR2 (Homo sapiens, UniProt P25025)
T21 construct: purchased DiscoveRx (Eurofins) gpcrMAX PathHunter β-arrestin panel
How it was run: as §1

[23] = molecular target: T22, GHSR (Homo sapiens, UniProt Q92847)
T22 construct: purchased DiscoveRx (Eurofins) gpcrMAX PathHunter β-arrestin panel
How it was run: as §1

[24] = molecular target: T23, MC5R (Homo sapiens, UniProt P33032)
T23 construct: purchased DiscoveRx (Eurofins) gpcrMAX PathHunter β-arrestin panel
How it was run: as §1

[25] = molecular target: CALCR-RAMP2 (Homo sapiens, UniProt O60895+P30988)
How it was run: as §1

[26] = molecular target: T24, CCR3 (Homo sapiens, UniProt P51677)
T24 construct: purchased DiscoveRx (Eurofins) gpcrMAX PathHunter β-arrestin panel
How it was run: as §1

[27] = molecular target: T25, CCR7 (Homo sapiens, UniProt P32248)
T25 construct: purchased DiscoveRx (Eurofins) gpcrMAX PathHunter β-arrestin panel
How it was run: as §1

[28] = molecular target: T26, PTGER4 (Homo sapiens, UniProt P35408)
T26 construct: purchased DiscoveRx (Eurofins) gpcrMAX PathHunter β-arrestin panel
How it was run: as §1

T16 sequence (P49238 whole entry): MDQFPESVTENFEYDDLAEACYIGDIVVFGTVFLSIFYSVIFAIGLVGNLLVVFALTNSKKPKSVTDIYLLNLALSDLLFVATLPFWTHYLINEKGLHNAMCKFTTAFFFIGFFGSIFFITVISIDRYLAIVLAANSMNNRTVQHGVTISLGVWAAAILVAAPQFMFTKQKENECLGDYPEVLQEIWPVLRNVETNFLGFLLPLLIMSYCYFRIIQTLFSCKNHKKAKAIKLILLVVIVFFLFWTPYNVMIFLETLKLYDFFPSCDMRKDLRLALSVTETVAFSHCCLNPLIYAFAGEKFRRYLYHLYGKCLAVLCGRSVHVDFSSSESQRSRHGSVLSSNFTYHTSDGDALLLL
T24 sequence (P51677 whole entry): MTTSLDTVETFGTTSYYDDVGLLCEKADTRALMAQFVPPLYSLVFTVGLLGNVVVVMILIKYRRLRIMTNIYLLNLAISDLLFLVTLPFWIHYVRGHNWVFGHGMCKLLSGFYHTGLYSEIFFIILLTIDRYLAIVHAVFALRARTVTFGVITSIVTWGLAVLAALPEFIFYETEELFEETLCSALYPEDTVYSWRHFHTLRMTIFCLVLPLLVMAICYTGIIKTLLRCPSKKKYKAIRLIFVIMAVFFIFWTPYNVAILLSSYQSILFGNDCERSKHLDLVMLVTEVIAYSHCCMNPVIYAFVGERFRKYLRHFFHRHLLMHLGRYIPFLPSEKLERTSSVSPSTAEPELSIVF
T19 sequence (P43116 whole entry): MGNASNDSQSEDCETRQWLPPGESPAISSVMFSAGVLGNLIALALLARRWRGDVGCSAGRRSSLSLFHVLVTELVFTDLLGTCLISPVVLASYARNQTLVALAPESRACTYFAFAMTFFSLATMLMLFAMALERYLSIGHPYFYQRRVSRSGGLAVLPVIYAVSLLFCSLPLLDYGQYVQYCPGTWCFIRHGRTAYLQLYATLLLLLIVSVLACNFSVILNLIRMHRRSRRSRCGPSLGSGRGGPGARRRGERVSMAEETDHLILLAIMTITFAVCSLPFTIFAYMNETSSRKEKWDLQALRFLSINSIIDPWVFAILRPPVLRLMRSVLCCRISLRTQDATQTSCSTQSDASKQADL
T10 sequence (O43193 whole entry): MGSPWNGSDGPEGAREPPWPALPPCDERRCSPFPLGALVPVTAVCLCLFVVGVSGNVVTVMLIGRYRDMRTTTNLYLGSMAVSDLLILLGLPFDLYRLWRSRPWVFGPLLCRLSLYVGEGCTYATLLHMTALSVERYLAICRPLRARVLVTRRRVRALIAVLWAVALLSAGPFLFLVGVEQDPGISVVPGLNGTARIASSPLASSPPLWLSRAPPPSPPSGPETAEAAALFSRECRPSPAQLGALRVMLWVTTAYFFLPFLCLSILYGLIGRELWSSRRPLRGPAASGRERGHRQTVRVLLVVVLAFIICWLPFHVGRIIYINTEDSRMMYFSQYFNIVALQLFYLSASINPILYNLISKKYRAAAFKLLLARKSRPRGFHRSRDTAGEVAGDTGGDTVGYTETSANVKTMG
T2 sequence (Q8NFJ6 whole entry): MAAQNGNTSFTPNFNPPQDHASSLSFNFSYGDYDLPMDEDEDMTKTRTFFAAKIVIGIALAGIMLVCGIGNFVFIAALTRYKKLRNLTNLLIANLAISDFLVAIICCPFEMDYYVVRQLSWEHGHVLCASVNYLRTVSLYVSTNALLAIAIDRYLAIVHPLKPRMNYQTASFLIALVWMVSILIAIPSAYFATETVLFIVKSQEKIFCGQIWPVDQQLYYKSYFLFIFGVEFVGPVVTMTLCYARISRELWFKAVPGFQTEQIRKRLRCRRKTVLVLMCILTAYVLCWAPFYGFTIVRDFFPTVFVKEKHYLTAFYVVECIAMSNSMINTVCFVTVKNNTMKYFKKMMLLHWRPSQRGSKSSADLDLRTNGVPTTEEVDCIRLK
T4 sequence (Q9UBY5 whole entry): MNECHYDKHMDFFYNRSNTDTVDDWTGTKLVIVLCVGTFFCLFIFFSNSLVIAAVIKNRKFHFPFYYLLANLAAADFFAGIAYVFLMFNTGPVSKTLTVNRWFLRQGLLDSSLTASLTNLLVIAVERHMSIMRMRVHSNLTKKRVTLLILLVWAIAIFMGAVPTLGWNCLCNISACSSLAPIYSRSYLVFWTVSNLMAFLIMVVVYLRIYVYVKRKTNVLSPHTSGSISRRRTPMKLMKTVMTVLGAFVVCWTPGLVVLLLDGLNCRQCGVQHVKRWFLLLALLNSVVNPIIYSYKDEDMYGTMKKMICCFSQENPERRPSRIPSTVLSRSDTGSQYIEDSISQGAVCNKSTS
T1 sequence (O14842 whole entry): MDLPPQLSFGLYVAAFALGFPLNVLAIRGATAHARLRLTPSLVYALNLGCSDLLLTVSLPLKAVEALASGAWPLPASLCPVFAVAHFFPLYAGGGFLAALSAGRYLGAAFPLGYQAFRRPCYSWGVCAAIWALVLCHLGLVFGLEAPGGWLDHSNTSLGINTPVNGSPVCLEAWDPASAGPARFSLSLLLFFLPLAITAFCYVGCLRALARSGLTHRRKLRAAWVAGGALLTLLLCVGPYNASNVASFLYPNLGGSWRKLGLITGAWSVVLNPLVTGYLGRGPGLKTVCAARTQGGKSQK
T17 sequence (P25103 whole entry): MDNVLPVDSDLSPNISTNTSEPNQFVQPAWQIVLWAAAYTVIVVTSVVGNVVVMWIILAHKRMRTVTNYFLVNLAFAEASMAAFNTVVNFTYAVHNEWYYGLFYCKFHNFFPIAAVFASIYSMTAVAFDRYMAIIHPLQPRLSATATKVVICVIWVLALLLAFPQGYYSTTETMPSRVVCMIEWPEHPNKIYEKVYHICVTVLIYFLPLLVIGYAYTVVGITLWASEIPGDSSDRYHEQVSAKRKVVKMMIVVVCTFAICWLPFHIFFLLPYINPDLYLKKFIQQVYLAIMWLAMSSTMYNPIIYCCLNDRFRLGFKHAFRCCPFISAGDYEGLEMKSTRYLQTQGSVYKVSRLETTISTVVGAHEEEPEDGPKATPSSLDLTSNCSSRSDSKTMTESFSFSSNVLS
T3 sequence (P21731 whole entry): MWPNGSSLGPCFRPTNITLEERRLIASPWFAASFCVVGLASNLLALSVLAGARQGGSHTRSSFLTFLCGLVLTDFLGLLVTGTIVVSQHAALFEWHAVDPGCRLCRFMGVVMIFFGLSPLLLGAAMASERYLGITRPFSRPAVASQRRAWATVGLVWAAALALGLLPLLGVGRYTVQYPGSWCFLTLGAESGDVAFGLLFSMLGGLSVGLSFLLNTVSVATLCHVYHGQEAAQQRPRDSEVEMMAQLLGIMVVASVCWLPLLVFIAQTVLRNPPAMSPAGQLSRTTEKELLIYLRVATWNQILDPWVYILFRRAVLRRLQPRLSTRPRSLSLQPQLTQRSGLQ
T9 sequence (P41586 21-468): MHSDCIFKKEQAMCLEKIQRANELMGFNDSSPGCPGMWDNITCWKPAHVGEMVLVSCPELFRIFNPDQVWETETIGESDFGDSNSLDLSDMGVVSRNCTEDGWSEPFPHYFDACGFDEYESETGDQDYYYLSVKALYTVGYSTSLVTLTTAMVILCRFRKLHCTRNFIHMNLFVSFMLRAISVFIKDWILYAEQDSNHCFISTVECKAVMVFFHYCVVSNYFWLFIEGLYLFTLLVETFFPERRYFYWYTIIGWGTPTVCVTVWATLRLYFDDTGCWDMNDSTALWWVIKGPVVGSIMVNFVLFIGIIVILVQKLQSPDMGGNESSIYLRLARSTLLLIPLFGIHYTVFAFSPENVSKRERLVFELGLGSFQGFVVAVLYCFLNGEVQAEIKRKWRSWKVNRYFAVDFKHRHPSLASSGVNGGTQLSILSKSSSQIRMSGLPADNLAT
T26 sequence (P35408 whole entry): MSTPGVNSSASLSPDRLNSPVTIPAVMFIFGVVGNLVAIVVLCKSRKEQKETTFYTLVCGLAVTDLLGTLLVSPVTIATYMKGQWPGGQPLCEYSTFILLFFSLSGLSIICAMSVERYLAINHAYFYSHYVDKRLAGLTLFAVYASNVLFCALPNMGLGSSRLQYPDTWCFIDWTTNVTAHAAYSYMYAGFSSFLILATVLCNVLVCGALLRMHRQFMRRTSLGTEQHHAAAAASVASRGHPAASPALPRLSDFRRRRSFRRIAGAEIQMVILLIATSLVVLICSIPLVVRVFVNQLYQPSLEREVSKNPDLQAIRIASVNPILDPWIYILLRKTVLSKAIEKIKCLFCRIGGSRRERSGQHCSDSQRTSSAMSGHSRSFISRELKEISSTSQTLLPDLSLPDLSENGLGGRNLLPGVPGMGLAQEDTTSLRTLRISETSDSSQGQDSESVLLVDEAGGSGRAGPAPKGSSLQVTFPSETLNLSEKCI
T23 sequence (P33032 whole entry): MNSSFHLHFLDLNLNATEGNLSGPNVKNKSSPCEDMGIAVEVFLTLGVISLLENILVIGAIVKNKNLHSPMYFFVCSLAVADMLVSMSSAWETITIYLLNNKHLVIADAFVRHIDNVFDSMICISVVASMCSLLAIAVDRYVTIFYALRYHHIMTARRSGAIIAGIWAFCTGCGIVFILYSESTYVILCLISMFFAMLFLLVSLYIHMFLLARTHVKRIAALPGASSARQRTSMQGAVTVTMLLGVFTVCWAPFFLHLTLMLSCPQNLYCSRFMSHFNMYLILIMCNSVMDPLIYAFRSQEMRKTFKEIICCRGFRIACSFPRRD
T12 sequence (P49682 whole entry): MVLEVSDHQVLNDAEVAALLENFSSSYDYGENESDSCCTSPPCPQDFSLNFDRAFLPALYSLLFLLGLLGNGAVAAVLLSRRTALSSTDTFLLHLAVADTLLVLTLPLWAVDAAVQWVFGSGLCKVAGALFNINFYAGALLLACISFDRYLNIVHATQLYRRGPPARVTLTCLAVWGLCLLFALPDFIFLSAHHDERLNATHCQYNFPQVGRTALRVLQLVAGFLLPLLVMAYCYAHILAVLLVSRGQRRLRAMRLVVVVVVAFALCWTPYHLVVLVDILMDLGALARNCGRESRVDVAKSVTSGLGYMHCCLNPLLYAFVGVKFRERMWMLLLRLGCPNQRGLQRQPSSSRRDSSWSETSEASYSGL

## CC(=O)N[C@@H](CCCC#C/C=C/Cl)CCCCCCC(Cl)Cl [Compound 4, taveuniamide F]
[1]
  inhibition at 20 µM: 42%
[2]
  inhibition at 20 µM: 30.5%
[3]
  inhibition at 20 µM: -4.4%
[4]
  inhibition at 20 µM: 38.6%
[5]
  inhibition at 20 µM: 14.1%
[6]
  inhibition at 20 µM: 23%
[7]
  inhibition at 20 µM: -21.3%
[8]
  inhibition at 20 µM: 7.6%
[9]
  inhibition at 20 µM: 1.2%
[10]
  inhibition at 20 µM: 16.5%
[11]
  inhibition at 20 µM: 53.1%
[12]
  inhibition at 20 µM: 0.8%
[13]
  inhibition at 20 µM: 4.6%
[14]
  inhibition at 20 µM: -4.7%
[15]
  inhibition at 20 µM: 60.2%
[16]
  inhibition at 20 µM: 1%
[17]
  inhibition at 20 µM: 35.6%
[18]
  inhibition at 20 µM: 0.5%
[19]
  inhibition at 20 µM: 49.1%
[20]
  inhibition at 20 µM: 4.4%
[21]
  inhibition at 20 µM: 3%
[22]
  inhibition at 20 µM: 20.5%
[23]
  inhibition at 20 µM: 30.8%
[24]
  inhibition at 20 µM: 39.8%
[25]
  inhibition at 20 µM: 58.6%
[26]
  inhibition at 20 µM: 19.2%
[27]
  inhibition at 20 µM: 8.2%
[28]
  inhibition at 20 µM: 36.5%
